The target in assay [1] is T1, Inhibitor of nuclear factor kappa-B kinase subunit beta (Homo sapiens) (UniProt O14920).
T1 sequence (whole entry): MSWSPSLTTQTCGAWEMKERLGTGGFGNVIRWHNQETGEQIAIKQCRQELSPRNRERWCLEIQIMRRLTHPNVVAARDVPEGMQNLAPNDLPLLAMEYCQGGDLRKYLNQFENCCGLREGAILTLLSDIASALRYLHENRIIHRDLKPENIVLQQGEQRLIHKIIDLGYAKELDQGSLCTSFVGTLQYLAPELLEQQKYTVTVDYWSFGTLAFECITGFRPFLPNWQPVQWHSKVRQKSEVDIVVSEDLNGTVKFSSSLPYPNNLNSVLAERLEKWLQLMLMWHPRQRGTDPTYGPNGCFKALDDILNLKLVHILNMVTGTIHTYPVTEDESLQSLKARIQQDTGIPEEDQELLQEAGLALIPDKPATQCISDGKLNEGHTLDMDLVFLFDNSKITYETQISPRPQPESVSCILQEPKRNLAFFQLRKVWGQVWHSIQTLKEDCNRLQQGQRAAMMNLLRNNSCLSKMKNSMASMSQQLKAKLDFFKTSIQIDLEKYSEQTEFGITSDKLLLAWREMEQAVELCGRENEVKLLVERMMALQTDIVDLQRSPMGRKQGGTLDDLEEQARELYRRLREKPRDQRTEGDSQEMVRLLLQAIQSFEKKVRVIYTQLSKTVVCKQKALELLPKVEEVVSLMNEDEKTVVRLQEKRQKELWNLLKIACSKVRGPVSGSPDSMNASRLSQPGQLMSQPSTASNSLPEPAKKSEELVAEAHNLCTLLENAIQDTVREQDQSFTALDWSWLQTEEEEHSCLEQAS
Particulars: at 1 µM.

The target of assay [2] is T2, Ephrin type-B receptor 1 (Homo sapiens) (UniProt P54762).
T2 sequence (whole entry): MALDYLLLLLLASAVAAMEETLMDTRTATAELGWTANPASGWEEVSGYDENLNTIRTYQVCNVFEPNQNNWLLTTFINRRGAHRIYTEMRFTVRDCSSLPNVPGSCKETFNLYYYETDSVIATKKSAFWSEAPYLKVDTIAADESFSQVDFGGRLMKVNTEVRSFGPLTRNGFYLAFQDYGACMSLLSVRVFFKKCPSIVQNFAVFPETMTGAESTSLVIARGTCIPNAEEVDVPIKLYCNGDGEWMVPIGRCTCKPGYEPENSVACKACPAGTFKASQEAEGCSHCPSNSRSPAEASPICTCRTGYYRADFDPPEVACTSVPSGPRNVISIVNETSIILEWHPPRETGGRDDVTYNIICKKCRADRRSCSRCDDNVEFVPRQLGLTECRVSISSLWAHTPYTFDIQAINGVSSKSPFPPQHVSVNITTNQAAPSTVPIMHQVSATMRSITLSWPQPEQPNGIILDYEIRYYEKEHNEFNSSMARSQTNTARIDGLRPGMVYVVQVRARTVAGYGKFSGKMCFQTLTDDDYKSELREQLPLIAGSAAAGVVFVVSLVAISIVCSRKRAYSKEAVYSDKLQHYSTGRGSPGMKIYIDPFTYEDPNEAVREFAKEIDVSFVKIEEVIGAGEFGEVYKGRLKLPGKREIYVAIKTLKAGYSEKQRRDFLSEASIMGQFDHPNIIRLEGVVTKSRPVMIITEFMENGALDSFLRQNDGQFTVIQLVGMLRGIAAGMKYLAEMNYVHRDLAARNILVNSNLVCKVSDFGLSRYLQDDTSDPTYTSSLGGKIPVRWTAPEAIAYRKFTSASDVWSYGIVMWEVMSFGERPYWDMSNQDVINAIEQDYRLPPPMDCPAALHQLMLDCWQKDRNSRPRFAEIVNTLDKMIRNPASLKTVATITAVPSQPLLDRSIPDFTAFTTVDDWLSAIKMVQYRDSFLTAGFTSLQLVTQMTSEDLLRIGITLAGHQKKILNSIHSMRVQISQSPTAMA
The assay can be described thus: Selectivity interaction (KinomeScan (DiscoverX)) EUB0001049a EPHB1. Particulars: at 1 µM.

A further assay deals with Insulin receptor (Homo sapiens, UniProt P06213). The assay can be described thus: Selectivity interaction (KinomeScan (DiscoverX)) EUB0000045b INSR.
Sequence of Insulin receptor (P06213 28-758 limits assumed): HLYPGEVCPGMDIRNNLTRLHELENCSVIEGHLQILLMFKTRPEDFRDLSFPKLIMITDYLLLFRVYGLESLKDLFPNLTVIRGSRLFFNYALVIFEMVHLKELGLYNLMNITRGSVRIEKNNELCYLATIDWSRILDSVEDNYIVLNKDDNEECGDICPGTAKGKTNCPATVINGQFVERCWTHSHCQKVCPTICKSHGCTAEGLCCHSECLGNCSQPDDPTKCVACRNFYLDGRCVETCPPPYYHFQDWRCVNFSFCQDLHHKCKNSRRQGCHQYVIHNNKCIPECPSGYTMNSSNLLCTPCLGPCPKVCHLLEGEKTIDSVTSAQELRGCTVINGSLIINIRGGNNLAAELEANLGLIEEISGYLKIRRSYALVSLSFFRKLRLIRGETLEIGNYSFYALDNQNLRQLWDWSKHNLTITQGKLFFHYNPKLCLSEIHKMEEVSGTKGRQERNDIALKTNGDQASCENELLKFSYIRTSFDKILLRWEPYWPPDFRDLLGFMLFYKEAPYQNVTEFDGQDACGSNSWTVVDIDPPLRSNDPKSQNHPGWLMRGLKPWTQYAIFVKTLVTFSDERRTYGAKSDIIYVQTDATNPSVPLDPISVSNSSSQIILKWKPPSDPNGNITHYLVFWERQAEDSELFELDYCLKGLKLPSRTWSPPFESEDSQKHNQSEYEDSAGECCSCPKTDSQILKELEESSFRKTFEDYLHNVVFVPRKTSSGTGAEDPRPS
Sequence of Insulin receptor (P06213 763-1382 limits assumed): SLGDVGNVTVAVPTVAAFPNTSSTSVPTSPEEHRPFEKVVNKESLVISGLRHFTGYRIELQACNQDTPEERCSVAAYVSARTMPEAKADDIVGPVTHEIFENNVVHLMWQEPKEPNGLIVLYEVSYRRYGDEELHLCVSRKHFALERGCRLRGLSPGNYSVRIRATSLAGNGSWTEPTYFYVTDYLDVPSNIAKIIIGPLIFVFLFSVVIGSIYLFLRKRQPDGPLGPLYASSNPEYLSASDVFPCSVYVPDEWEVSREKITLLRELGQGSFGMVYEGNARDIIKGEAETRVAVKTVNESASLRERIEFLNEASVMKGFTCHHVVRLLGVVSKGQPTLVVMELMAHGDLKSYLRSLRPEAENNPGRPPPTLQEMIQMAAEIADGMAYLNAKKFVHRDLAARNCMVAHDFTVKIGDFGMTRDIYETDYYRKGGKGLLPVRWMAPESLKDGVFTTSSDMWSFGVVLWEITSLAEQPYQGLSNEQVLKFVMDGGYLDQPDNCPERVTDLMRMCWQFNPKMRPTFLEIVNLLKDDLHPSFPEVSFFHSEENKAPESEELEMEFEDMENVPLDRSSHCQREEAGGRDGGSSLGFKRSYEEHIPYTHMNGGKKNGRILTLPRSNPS
For assay [3], the target named is Ribosomal protein S6 kinase alpha-3 (Homo sapiens, UniProt P51812). In words: Selectivity interaction (ActivX KiNativ screen (kinase selectivity in THP-1 cell lysates)) EUB0000639a RPS6KA3. The format is subcellular. Conditions: lysate, at 0.01 µM.
Sequence of Ribosomal protein S6 kinase alpha-3 (P51812 whole entry): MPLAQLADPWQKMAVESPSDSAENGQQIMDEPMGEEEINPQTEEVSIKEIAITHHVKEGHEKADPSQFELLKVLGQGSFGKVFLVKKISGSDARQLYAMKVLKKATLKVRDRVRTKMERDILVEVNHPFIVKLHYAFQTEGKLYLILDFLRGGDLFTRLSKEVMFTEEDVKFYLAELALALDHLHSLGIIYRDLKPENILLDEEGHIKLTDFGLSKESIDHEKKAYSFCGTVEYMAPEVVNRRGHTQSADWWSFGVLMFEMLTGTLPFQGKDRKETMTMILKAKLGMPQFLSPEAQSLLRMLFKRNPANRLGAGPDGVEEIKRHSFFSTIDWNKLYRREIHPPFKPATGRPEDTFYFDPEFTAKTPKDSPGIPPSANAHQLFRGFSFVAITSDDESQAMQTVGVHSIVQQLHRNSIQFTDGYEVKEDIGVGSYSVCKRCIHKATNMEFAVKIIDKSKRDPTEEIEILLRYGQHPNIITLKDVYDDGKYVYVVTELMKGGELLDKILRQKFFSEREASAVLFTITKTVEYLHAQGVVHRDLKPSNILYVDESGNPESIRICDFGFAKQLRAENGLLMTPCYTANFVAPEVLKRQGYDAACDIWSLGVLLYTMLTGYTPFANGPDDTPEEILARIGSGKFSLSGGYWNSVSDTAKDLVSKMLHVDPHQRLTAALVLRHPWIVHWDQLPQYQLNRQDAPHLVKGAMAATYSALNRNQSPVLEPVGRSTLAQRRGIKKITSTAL
Assay [4] addresses 4-aminobutyrate aminotransferase, mitochondrial (Homo sapiens, UniProt P80404). The assay can be described thus: Selectivity interaction (GPCR panel (PDSP screen)) EUB0000311b ABAT. Particulars: at 10 µM.

Each structure is given as a SMILES string.

Sequence of 4-aminobutyrate aminotransferase, mitochondrial (P80404 whole entry): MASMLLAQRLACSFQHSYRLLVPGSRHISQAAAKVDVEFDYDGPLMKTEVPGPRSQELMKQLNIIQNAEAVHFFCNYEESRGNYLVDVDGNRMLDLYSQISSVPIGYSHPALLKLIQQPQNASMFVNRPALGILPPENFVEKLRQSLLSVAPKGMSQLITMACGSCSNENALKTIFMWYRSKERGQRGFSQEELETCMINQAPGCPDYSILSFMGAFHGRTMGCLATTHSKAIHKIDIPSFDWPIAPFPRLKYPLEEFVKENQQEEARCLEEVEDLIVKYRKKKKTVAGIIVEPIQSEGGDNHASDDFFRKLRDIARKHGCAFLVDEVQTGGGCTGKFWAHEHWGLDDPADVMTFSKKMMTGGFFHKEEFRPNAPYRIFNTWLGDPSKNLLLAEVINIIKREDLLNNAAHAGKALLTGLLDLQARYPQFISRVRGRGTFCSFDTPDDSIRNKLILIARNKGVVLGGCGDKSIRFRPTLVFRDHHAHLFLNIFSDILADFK

With `Cc1ccc(-c2ccc3c(ccc4sc5c(c43)NC[C@@H](C)NC5=O)n2)cn1`, in assay [1], the % of inhibition is 0%.
In turn, `COc1cc(Nc2nc(C)cc(-c3cnn4nc(OC)ccc34)n2)cc(C(F)(F)F)c1` had a % of control in assay [2] of 85%.
For `C=CC(=O)Nc1cc(-n2c(=O)ccc3cnc4ccc(-c5ccc(NS(C)(=O)=O)cc5)cc4c32)ccc1C`, the % of control amounted to 93% on Insulin receptor (at 1 µM) and 100% at Insulin receptor (at 10 µM).
The compound `CC[C@@H]1[C@H](F)C(=O)N[C@@H]1COc1nccc2cc(C(N)=O)c(OC)cc12` [ZIMLOVISERTIB] yielded a % of inhibition in assay [3] of 17.5%.
For the compound `CCc1ccccc1C(=O)Nc1n[nH]c2c(C)c(F)c(C3C(C#N)=C(C)N(C)C(C)=C3C#N)cc12` [BAY-3827], the % of inhibition in assay [4] was determined as 85.6%.

The values are drawn from ChEMBL document CHEMBL5465560, “Selectivity Literature for EUbOPEN Chemogenomic Library” (2024).
